Data as given in patent US20240116984A1, “MODIFIED PEPTIDES FOR THE INHIBITION OF ABNORMAL TAU ACCUMULATION” (University of Notre Dame du Lac, priority 2021, published 2024).
Entries after “also recorded” stand apart in the source; their conditions may differ. Starred links: 1 amine or outer side, 2 acyl side, 3 side chain; linkers in the order of their positions; H or OH if unused. Non-standard residues stand in square brackets, D forms with d. Residues, ends and D or L forms follow the SMILES beside them. Primed or numbered codes have the meaning given here. *: point of attachment. aIle′ = Ile with backbone N-amino (N-aminated amide nitrogen), CC[C@H](C)[C@@H](C(=O)[*:2])N(N)[*:1]; aVal = Val with backbone N-amino (N-aminated amide nitrogen), CC(C)[C@@H](C(=O)[*:2])N(N)[*:1]; X2 = NN([C@@H](Cc1ccc(O)cc1)C(=O)[*:2])[*:1]; X1 = CC[C@H](C)[C@@H](C(=O)[*:2])N(N)[*:1]; N(NH2)LysNH2 = NCCCC[C@@H](C(N)=O)N(N)*; X3 = CC(C)[C@@H](C(=O)[*:2])N(N)[*:1]; N(NH2)Lys = NCCCC[C@H](NN)C(=O)O

Assays:
[1] = system: Recombinant tauP301L (0N4R); assay: Thioflavin T (ThT) fluorescence aggregation assay of recombinant tauP301L; format: biochemical, human; details: Tau 10 μM : inhibitor 20 μM (2-fold molar excess), heparin, 48 h
Method: Recombinant tauP301L (10 μM final concentration) and NAP inhibitors 20 μM final concentration) were mixed in an aggregation buffer (100 mM sodium acetate, 10 μM ThT, 10 μM heparin, 2 mM DTT, 0.5% DMSO, pH 7.4) in a 96-well clear bottom black plate with a final reaction volume of 200 μL. The plate was then sealed with a clear sealing film and allowed to incubate at 37° C. with continuous shaking in a Biotek Synergy H1 microplate reader. An automated method was used to carry out ThT fluorescence measurements at an excitation wavelength of 444 nm and an emission wavelength of 485 nm at an interval of every 5 minutes for 48 hours. Experiments were carried out in technical replicates on at least two different days. Every experiment included control wells that lacked tau301L, heparin, or NAPs. The average of tau-only (no heparin) wells was used to subtract background fluorescence and the average of the first and last 10 data points of tau+heparin wells, after blank subtraction, was used to normalize the data. All data plots were generated with SigmaPlot.

[2] = system: tauP301L fibrils; assay: Transmission electron microscopy of heparin-induced tauP301L fibrils; format: biochemical, human; details: two-fold molar excess of inhibitor, 96 h
Method: For analyzing fibrils by transmission electron microscopy (TEM), aggregation was carried out under conditions similar to the assay above but with ThT excluded and a final reaction volume of 100 μL Samples were incubated in a microcentrifuge tube for 4 days at 37° C. with a mixing speed of 100 rpm. A 10 μL aliquot of the sample was then applied to 400-meshed formvar/carbon-coated copper grids and negative stained with 2% uranyl-acetate. Micrographs were taken on a JEOL 2011 TEM at 200 kV.

[3] = system: HEK293 cells stably expressing tau-RD (P301L/V337M)-YFP; assay: Cellular seeding assay, seeding by monomeric tau co-incubated with NAPs; format: cell-based, human; details: 0.19 μM Tau, 4 days co-incubation, cells 48 h
Method: (§1) HEK293 cells stably expressing tau-RD (LM)-YFP were cultured in DMEM media containing 10% FBS, 1% penicillin/streptomycin, and 1% Glutamax™ (Gibco) in a 75 cm^2 cell culture flask under 5% CO2 at 37° C. For each experiment, cells were plated at a density of 15000 cells/well into 96 well tissue culture plates.
Monomeric tauP301L was co-incubated with NAPs for 4 days in an aggregation buffer at 37° C. (see above section). Following incubation, the reaction mixture was diluted in low serum Opti-MEM® media (Gibco), mixed with lipofectamine 2000 in 20:1 ratio (complex:lipofectamine) and allowed to incubate for an additional 20 minutes at RT. A mixture of 0.19 μM of Tau+1.9 μM or 0.009 μM of inhibitors (final concentrations) was added to the cells. Cells were incubated for additional 48 h before taking measurements on a BioTek Cytation 5 cell imager and microplate reader. 10×10 pictures/well were taken at 20× magnification under FITC channel and the punctate counting was carried out using built-in software. Each data set was collected from technical replicates on at least two different days. Every experiment included control wells (no tau, no heparin, and no NAP). All data plots were generated with SigmaPlot. Error bars shown are standard deviation from technical replicates.

[4] = system: HEK293 cells stably expressing tau-RD (P301L/V337M)-YFP; format: cell-based, human; details: 36 h
Method: TauP301L was diluted to a final concentration of 10 μM in an aggregation buffer containing 100 mM sodium acetate, 10 μM heparin, 2 mM DTT, pH 7.4. The protein was incubated in a microcentrifuge tube for 4 days at 37° C. with a shaking speed of 100 rpm. Control vials included those wherein (1) buffer was added in place of tauP301L, and (2) buffer was added in place of heparin.
as §1
TauP301L fibrils were prepared as described above (see section on fibril formation) and sonicated for 3 minutes prior to use in this assay. In a reaction volume of 40 μL, 8 μL of fibrils was diluted with 31 μL of low-serum Opti-MEM® (Gibco) media and then mixed with 1 μL of NAPs (DMSO concentration was constant across various concentration of inhibitors). […] IC50 values were calculated by fitting the data set using sigmoidal logistic 4 parameter equation. Error bars represent standard deviation from technical replicates. % Tau infection was calculated using following formula: […]

[5] = Human serum stability assay; format: in vitro ADME; details: 25% human serum, 24 h
Method: The stability of NAPs in 25% human serum (Millipore Sigma) was assessed by HPLC. The reaction was started by adding NAPs at a final concentration of 500 μM in pre-warmed serum. The mixture was incubated at 37° C. for 24 h. A 100 μL aliquot of the reaction mixture was taken out at 0 h, 1 h, 4 h, and 24 h and was mixed with an equal volume of 20% TCA and incubated at 4° C. for 15 minutes to precipitate serum proteins. After centrifugation at 12000 rpm for 10 min, the supernatant was collected and mixed with an internal standard (1 mg/mL of Cbz-Tyr-OH dissolved in MeCN) and stored at −20° C. Samples were then analyzed by LC-MS and the percentage of peptide remaining was calculated by integrating peaks.

[6] = system: human neuroblastoma SH-SY5Y cells; assay: MTT cell viability assay on SH-SY5Y cells; format: cell-based; details: 10 μM and 50 μM, 48 h
Method: MTT cell viability assays were carried out on both HEK293 cells stably expressing tau-RD (LM)-YFP and SH-SY5Y cells. Cells were cultured in DMEM/F12 complete media containing 10% FBS, 1% penicillin/streptomycin and 1% Glutamax™ (Gibco) in a 75 cm^2 cell culture flask under 5% CO2 at 37° C. Cell viability was determined using MTT reduction assay. Briefly, 15,000 cells/well were plated in a 96 well tissue culture plate and were allowed to incubate overnight in a CO2 incubator. The media was aspirated, and the NAP inhibitor prepared in complete media was added at a given final concentration. The plate was then allowed to incubate for additional 48 h in a CO2 incubator and the media was aspirated again and replaced with 0.5 mg/mL of MTT prepared in complete media and incubated for additional 3 h. Media was then replaced with DMSO to dissolve formazan crystals and the absorbance was measured at 570 nm using Synergy H1 micro plate reader. Each data set were collected from technical replicates on at least two different days.

[7] = target: T1, synthetic, full-length Aβ42 (Homo sapiens, UniProt P05067); assay: ThT fluorescence assay with Aβ42; format: biochemical; details: Aβ42 40 μM
T1 construct: synthetic, full-length Aβ42 (40 μM)
T1 sequence (P05067 672-713 limits assumed): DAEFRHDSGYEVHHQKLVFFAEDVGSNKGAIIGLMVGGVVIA
Method: A peptidomimetic approach to tau inhibition offers prospects for achieving selectivity over other amyloids rich in β structure. As a preliminary test, the best-performing tau mimic, compound 12 (EG09; SEQ ID NO: 18), was selected and its effect on Aβ42 aggregation in vitro was determined (FIG. 11).

Row | Compound | effect on end-point ThT fluorescence of tauP301L (inhibition of Tau aggregation) [1] | fibril morphology / inhibition of Tau fibril formation by TEM [2] | other results
1 | CC[C@H](C)[C@@H](C(=O)N[C@H](C(=O)N(N)[C@@H](Cc1ccc(O)cc1)C(=O)N[C@@H](CCCCN)C(N)=O)C(C)C)N(N)C(=O)[C@H](CCC(N)=O)NC(=O)[C@@H](NC(C)=O)C(C)C [Compound 12, Ac-Val-Gln-aIle-Val-aTyr-Lys-NH2] (Ac-VQ[X1]V[X2]K-NH2) | significantly reduce | non-fibrillary amorphous aggregates; also recorded: non-fibrillary, amorphous aggregates | seeding capacity of monomeric tauP301L pre-treated with inhibitor ([3]; 0.009 μM inhibitor): less pronounced; seeding capacity of monomeric tauP301L pre-treated with inhibitor ([3]; 1.9 μM inhibitor): significantly reduced seeding capacity; IC50 [4]: ~5 µM; stability in human serum [5]: remarkably stable; also recorded: serum stable; cytotoxic effect, MTT assay [6]: no appreciable toxicity; also recorded: non-cytotoxic; also recorded: non-toxic to neuronal cells; effect on lag-time of Aβ42 aggregation ([7]; any of the concentrations tested): no effect on lag-time; inhibitory effect on Aβ42 aggregation ([7]; compound up to 4-fold molar excess (160 μM), ThT): no inhibitory effect
2 | CC[C@H](C)[C@H](NC(=O)[C@H](CCC(N)=O)NC(=O)[C@@H](NC(C)=O)C(C)C)C(=O)N(N)[C@H](C(=O)N[C@@H](Cc1ccc(O)cc1)C(=O)N(N)[C@@H](CCCCN)C(N)=O)C(C)C [Compound 13, Ac-Val-Gln-Ile-aVal-Tyr-aLys-NH2] (Ac-VQI[X3]Y-{N(NH2)LysNH2}) | – | – | IC50 [4]: ~5 µM; stability in human serum [5]: remarkably stable; cytotoxic effect, MTT assay [6]: no appreciable toxicity; also recorded: non-cytotoxic
3 | Ac-Val-Gln-Ile-Val-Tyr-aLys-NH2 (Ac-VQIVY[N(NH2)Lys]-NH2; SMILES CC[C@H](C)[C@H](NC(=O)[C@H](CCC(N)=O)NC(=O)[C@@H](NC(C)=O)C(C)C)C(=O)N[C@H](C(=O)N[C@@H](Cc1ccc(O)cc1)C(=O)N(N)[C@@H](CCCCN)C(N)=O)C(C)C) [Compound 9] | – | did not inhibit Tau fibril formation | –
4 | Ac-Val-Gln-aIle-Ile-Asn-Lys-NH2 (Ac-VQ[aIle′]INK-NH2; SMILES CC[C@H](C)[C@H](NC(=O)[C@H]([C@@H](C)CC)N(N)C(=O)[C@H](CCC(N)=O)NC(=O)[C@@H](NC(C)=O)C(C)C)C(=O)N[C@@H](CC(N)=O)C(=O)N[C@@H](CCCCN)C(N)=O) [Compound 2] | significantly reduce | short, immature rod-like fibrils | –
5 | Ac-Val-Gln-aIle-Val-Tyr-Lys-NH2 (Ac-VQ[aIle′]VYK-NH2; SMILES CC[C@H](C)[C@@H](C(=O)N[C@H](C(=O)N[C@@H](Cc1ccc(O)cc1)C(=O)N[C@@H](CCCCN)C(N)=O)C(C)C)N(N)C(=O)[C@H](CCC(N)=O)NC(=O)[C@@H](NC(C)=O)C(C)C) [Compound 6] | significantly reduce | short, immature rod-like fibrils | –
6 | Ac-aVal-Gln-Ile-Val-Tyr-Lys-NH2 (Ac-[aVal]QIVYK-NH2; SMILES CC[C@H](C)[C@H](NC(=O)[C@H](CCC(N)=O)NC(=O)[C@H](C(C)C)N(N)C(C)=O)C(=O)N[C@H](C(=O)N[C@@H](Cc1ccc(O)cc1)C(=O)N[C@@H](CCCCN)C(N)=O)C(C)C) [Compound 5] | significantly reduce | short, immature rod-like fibrils | –
7 | Ac-aVal-Gln-aIle-Ile-Asn-Lys-NH2 (Ac-[aVal]Q[aIle′]INK-NH2; SMILES CC[C@H](C)[C@H](NC(=O)[C@H]([C@@H](C)CC)N(N)C(=O)[C@H](CCC(N)=O)NC(=O)[C@H](C(C)C)N(N)C(C)=O)C(=O)N[C@@H](CC(N)=O)C(=O)N[C@@H](CCCCN)C(N)=O) [Compound 4] | significantly reduce | non-fibrillary amorphous aggregates; also recorded: non-fibrillary, amorphous aggregates | seeding capacity of monomeric tauP301L pre-treated with inhibitor ([3]; 0.009 μM inhibitor): far weaker anti-seeding activity; seeding capacity of monomeric tauP301L pre-treated with inhibitor ([3]; 1.9 μM inhibitor): far weaker anti-seeding activity
8 | Ac-aVal-Gln-aIle-Val-Tyr-Lys-NH2 (Ac-[aVal]Q[aIle′]VYK-NH2; SMILES CC[C@H](C)[C@@H](C(=O)N[C@H](C(=O)N[C@@H](Cc1ccc(O)cc1)C(=O)N[C@@H](CCCCN)C(N)=O)C(C)C)N(N)C(=O)[C@H](CCC(N)=O)NC(=O)[C@H](C(C)C)N(N)C(C)=O) [Compound 10] | – | did not inhibit Tau fibril formation | –
9 | Ac-aVal-Gln-aIle-Val-aTyr-Lys-NH2 [Compound 14] | – | did not inhibit Tau fibril formation | –
